For this experiment, the system named is Plasmodium berghei. The experiment can be described thus: Luciferase/luciferin-expressing antifolate-resistant parasites were used to infect a culture of HepG2 cells that were pre-incubated with compounds. Infected hepatocytes emit light due to the luciferase reaction. Assay results are presented as the percent inhibition of light emission compared to control. […]. The format is functional. The settings on record: sporozoite; for IC50: read-out: LUCIFERASE INFECTION ASSAY - IC50; for IC90: read-out: LUCIFERASE INFECTION ASSAY - IC90.

Experimental findings from ChEMBL document CHEMBL4483862, “Open-source discovery of chemical leads for next-generation chemoprotective antimalarials” (2018) are described below.

Usually IC50 stands for the concentration that inhibits the measured activity by half. The term IC90 denotes the point of the concentration-response curve where the effect stands at 90%. As to `FC(F)(F)c1cccc(NC(S)=Nc2ccc(Cl)c(Cl)c2)c1`, the half-maximal inhibitory concentration (IC50) was over 9.04 µM and the IC90 is over 9.04 µM.
On to `O=C(CC1(O)C(=O)Nc2ccc(Br)cc21)c1ccc2c(c1)OCO2` (stereo not given), for which the 50% inhibitory concentration (IC50) was over 8.46 µM and the IC90 was over 8.46 µM.
Take `N#CC(C#N)=NNc1ccc(-n2ccc(C(F)(F)F)n2)cc1`: the IC50 is 4.97 µM and the 90% effect concentration (IC90) was over 10.8 µM.
For the compound `COC(=O)c1cccc(NC(S)=Nc2ccc(Cl)c(Cl)c2)c1`, the IC50 was over 9.29 µM and the IC90 was over 9.29 µM.
As for `CN(C)C(=O)Oc1ccc(Br)cc1C(=O)Nc1ccc(F)c(Cl)c1`, the concentration for half-maximal inhibition (IC50) is over 7.94 µM and the IC90 is over 7.94 µM.
Regarding `COc1cc(NC(=O)c2ccc([N+](=O)[O-])o2)cc(C(F)(F)F)c1`, the half-inhibitory concentration (IC50) is over 9.99 µM and the 90% effect concentration (IC90) was over 9.99 µM.
As for `Oc1c(Cl)cc(Cl)cc1-c1ccn[nH]1`, the IC50 is over 14.4 µM and the IC90 was over 14.4 µM.
On to `Cc1ccc(-c2oc3ccccc3c(=O)c2O)cc1`, for which the IC50 is over 13.1 µM and the concentration for an effect of 90% (IC90) is over 13.1 µM.
Regarding `Cc1nn(C(C)(C)C)c(C)c1/C=N/OC(=O)Nc1ccc(Cl)cc1`, the IC50 came out at 0.0825 µM and the concentration for an effect of 90% (IC90) was found to be 0.27 µM.
As for `O=C(Nc1ccc(F)c(Cl)c1)c1ccccc1O`, the IC50 is over 12.4 µM and the 90% effect concentration (IC90) is over 12.4 µM.
For the compound `CN(C)c1cc(-c2cc(Cl)sc2Cl)oc(=O)c1Cl`, the concentration for half-maximal inhibition (IC50) is over 10.2 µM and the IC90 is over 10.2 µM.
As for `COC(=O)c1cc(OC)c(OC)cc1NS(=O)(=O)c1ccc(OC)cc1`, the IC50 turned out to be 3.35 µM and the 90% effect concentration (IC90) is over 8.65 µM.
On to `Cc1csc(NC(=O)Nc2ccc(C(F)(F)F)cc2)c1`, for which the IC50 is over 11 µM and the IC90 was over 11 µM.
In the case of `O=C(CSc1ccccc1[N+](=O)[O-])NNC(=S)NC1CC2C=CC1C2` (stereo not given), the IC50 was over 8.72 µM and the IC90 was over 8.72 µM.
Consider `N=C(NOC(=O)c1cnn(-c2ccccc2)c1C(F)(F)F)c1ccc(Cl)cc1`, for which the IC50 was 1.06 µM and the 90% effect concentration (IC90) is over 8.07 µM.
The matching figures for `O=[N+]([O-])c1ccc(/C=[N+](\[O-])c2ccccc2)s1`: over 13.3 µM and over 13.3 µM.
The matching figures for `COC(=O)c1sccc1Oc1ccc(C(F)(F)F)cc1NC(=S)Nc1cc(Cl)cc(Cl)c1`: over 6.33 µM and over 6.33 µM.
The matching figures for `Cc1csc(-c2nc(-c3ccc(C(C)(C)C)cc3)no2)c1`: over 11.1 µM and over 11.1 µM.
In the case of `COc1cccc(/C=N/NC(=S)NC2CC3CCC2C3)c1O` (stereo not given), the half-inhibitory concentration (IC50) was over 10.3 µM and the IC90 is over 10.3 µM.
Take `Cc1c(C)c(C)c(CSC2=NCCCN2C2CCCCC2)c(C)c1C`: the concentration for half-maximal inhibition (IC50) is over 8.35 µM and the concentration for an effect of 90% (IC90) was over 8.35 µM.
As for `O=C(NCc1cc(C(F)(F)F)cc(C(F)(F)F)c1)c1ccc(Cl)c(Cl)c1`, the half-inhibitory concentration (IC50) was over 7.93 µM and the concentration for an effect of 90% (IC90) is over 7.93 µM.
In the case of `FC(F)(F)c1ccc2nc(SCc3nc(-c4ccc(Cl)cc4)no3)[nH]c2c1`, the IC50 was over 8.03 µM and the IC90 is over 8.03 µM.
In the case of `N=C(NS(=O)(=O)c1ccc(Cl)c(Cl)c1)c1ccc(Cl)cc1`, the IC50 is over 9.07 µM and the IC90 is over 9.07 µM.
On to `COc1cccc(CNC(=S)SCC(=O)C(C)(C)C)c1`, for which the IC50 is over 10.6 µM and the concentration for an effect of 90% (IC90) was over 10.6 µM.
For `CCO/C=N\C1=C(C#N)C(c2ccc(F)cc2)c2ccc3ccccc3c2O1` (stereo not given), the concentration for half-maximal inhibition (IC50) is over 8.86 µM and the concentration for an effect of 90% (IC90) is over 8.86 µM.
With `Clc1ccc(Sc2ncnc3sccc23)cc1`, the IC50 is over 11.8 µM and the 90% effect concentration (IC90) is over 11.8 µM.
For `CC(C)(C)c1ccc(C(=O)ONC(=O)c2ccc(Cl)c(Cl)c2)cc1`, the concentration for half-maximal inhibition (IC50) is over 9.01 µM and the IC90 is over 9.01 µM.
`OC1(c2ccccc2)c2ccccc2-c2ccccc21`: the concentration for half-maximal inhibition (IC50) worked out at 7.15 µM and the IC90 is over 12.8 µM.
The matching figures for `COC(=O)c1cc(OC)c(OC)cc1NC(=O)c1ccccc1Br`: over 8.37 µM and over 8.37 µM.
The matching figures for `CN(C)c1ccc(C(=O)N/N=C/c2cc(Cl)cc(Cl)c2O)cc1`: over 9.37 µM and over 9.37 µM.
On to `OC(CN1CCCCC1)Cn1c2ccc(Br)cc2c2cc(Br)cc(Br)c21` (stereo not given), for which the IC50 was over 6.05 µM and the IC90 was over 6.05 µM.
Take `O=c1c(NNc2cccc(C(F)(F)F)c2)c(CSc2ccc(Cl)cc2)[nH]n1-c1ccccc1`: the half-inhibitory concentration (IC50) is over 6.72 µM and the IC90 was over 6.72 µM.
As for `CC1(C)CN=C(N(C(=O)Nc2ccc(Cl)c(Cl)c2)c2ccccc2)S1`, the IC50 is over 8.37 µM and the 90% effect concentration (IC90) was over 8.37 µM.
As for `O=C(Nc1cc(C(F)(F)F)cc(C(F)(F)F)c1)c1cnn(-c2ccccc2)c1C(F)(F)F`, the concentration for half-maximal inhibition (IC50) is over 7.06 µM and the IC90 was over 7.06 µM.
Turning to `CC1(C)CC(=O)C=C(Sc2nc3cc(Cl)ccc3s2)C1`, the IC50 was over 10.2 µM and the IC90 was over 10.2 µM.
Regarding `C=C(C)c1ccccc(=O)c1O`, the IC50 is over 20.3 µM and the concentration for an effect of 90% (IC90) was over 20.3 µM.
As to `Cc1onc(-c2c(Cl)cccc2Cl)c1C(=O)Nc1ccccc1C(=O)NCc1c(F)cccc1Cl`, the 50% inhibitory concentration (IC50) is over 6.19 µM and the IC90 was over 6.19 µM.
In the case of `CN(C)c1ccc(/C=N/NC(=O)c2ccccc2N)c(Cl)c1`, the concentration for half-maximal inhibition (IC50) is over 10.4 µM and the IC90 was over 10.4 µM.
As for `Cc1c(OCc2ccc([N+](=O)[O-])cc2)ccc2c1OC(C)(C)C=C2`, the IC50 stood at 0.667 µM and the IC90 is 6.1 µM.
On the same counts, the results for `O=S(=O)(NCc1cc(C(F)(F)F)cc(C(F)(F)F)c1)c1cc(C(F)(F)F)cc(C(F)(F)F)c1` are over 6.35 µM and over 6.35 µM.
On the same counts, the results for `COC(=O)c1cc(OC)c(OC)cc1NS(=O)(=O)c1ccc(Cl)cc1` are 2.84 µM and 2.91 µM.
On the same counts, the results for `COc1ccc2c3c(cccc13)C(=O)N(c1nc3ccccc3n1C)C2=O` are over 9.23 µM and over 9.23 µM.
Consider `Cc1nc2c(C)cccn2c1C(=O)NN1C(=O)CSC1c1ccccc1` (stereo not given), for which the IC50 was 7.23 µM and the IC90 is over 8 µM.
As for `CS(=O)(=O)c1ccc(C(F)(F)F)cc1[N+](=O)[O-]`, the IC50 is over 12.3 µM and the IC90 is over 12.3 µM.
Regarding `O=C(NCc1cc(Cl)cc(Cl)c1)c1cc(C(F)(F)F)cc(C(F)(F)F)c1`, the concentration for half-maximal inhibition (IC50) was over 7.93 µM and the IC90 was over 7.93 µM.
In the case of `CC(C)c1ccc(/C=N/NC(=O)CC#N)cc1`, the IC50 is over 14.4 µM and the IC90 is over 14.4 µM.
Consider `O=C(c1ccc(Sc2ccccc2)c([N+](=O)[O-])c1)N(Cc1ccc2c(c1)OCO2)c1ccc(F)cc1`, for which the 50% inhibitory concentration (IC50) was over 6.57 µM and the 90% effect concentration (IC90) was over 6.57 µM.
Turning to `CCCc1c(C(=O)ONC(=N)c2ccc(C(C)(C)C)cc2)cnn1-c1ccccc1`, the IC50 is over 8.16 µM and the concentration for an effect of 90% (IC90) is over 8.16 µM.
Take `O=C(CCCC(=O)Nc1cc(C(F)(F)F)cc(C(F)(F)F)c1)Nc1cc(C(F)(F)F)cc(C(F)(F)F)c1`: the IC50 worked out at 1.07 µM and the IC90 was over 5.95 µM.
As for `CCCCNC(=O)N1CCC(C(=O)c2c(C)c(C)c(C)c(C)c2C)CC1`, the IC50 was over 9.2 µM and the IC90 was over 9.2 µM.
On to `COc1ccc(S(=O)(=O)Nc2ccccc2Sc2ncnc3scc(C)c23)cc1`, for which the IC50 was over 7.44 µM and the IC90 was over 7.44 µM.
As for `Fc1cccc(F)c1NC(=S)Nc1cc(C(F)(F)F)cc(C(F)(F)F)c1`, the concentration for half-maximal inhibition (IC50) was over 8.24 µM and the IC90 was over 8.24 µM.
In the case of `O=C(Nc1ccc(F)cc1)Nc1cnn(-c2ccc([N+](=O)[O-])cc2)c1C(F)(F)F`, the IC50 stood at 2.92 µM and the IC90 is over 8.06 µM.
On to `CN(/N=C/c1cc(Cl)cc(Cl)c1O)c1ccc(C(F)(F)F)cc1[N+](=O)[O-]`, for which the IC50 is over 8.09 µM and the IC90 was over 8.09 µM.
As for `CCOC(=O)C(NC(=O)c1ccco1)(Nc1ccc(F)c(Cl)c1)C(F)(F)F` (stereo not given), the IC50 was over 8.07 µM and the IC90 is over 8.07 µM.
For `COc1ccc(C2c3ccc4ccccc4c3OC(=N)C2C#N)cc1` (stereo not given), the IC50 was over 10 µM and the IC90 is over 10 µM.
With `Cc1cc(C)c(CSC2=NCCCN2C2CCCCC2)c(C)c1`, the 50% inhibitory concentration (IC50) is over 8.99 µM and the IC90 is over 8.99 µM.
As to `COC(=O)c1sccc1Oc1ccc(C(F)(F)F)cc1NC(=O)Nc1c(Cl)cc(Cl)cc1Cl`, the 50% inhibitory concentration (IC50) is over 6.11 µM and the concentration for an effect of 90% (IC90) was over 6.11 µM.
As to `COC(=O)c1cccc(NC(=S)NC(=O)c2ccc(C(C)(C)C)cc2)c1`, the IC50 is over 8.91 µM and the concentration for an effect of 90% (IC90) was over 8.91 µM.
Consider `N#CC1C(=N)Oc2c(ccc3ccccc23)C1c1ccc(Cl)cc1` (stereo not given), for which the IC50 was over 9.92 µM and the concentration for an effect of 90% (IC90) was over 9.92 µM.
In the case of `O=C(NCc1cc(C(F)(F)F)cc(C(F)(F)F)c1)c1cc(Cl)cc(Cl)c1`, the IC50 is over 7.93 µM and the 90% effect concentration (IC90) is over 7.93 µM.
In the case of `Cc1nn(C(=O)c2c(Cl)cccc2Cl)c(C)c1Cc1c(F)cccc1Cl`, the half-maximal inhibitory concentration (IC50) was 7 µM and the IC90 is over 8.02 µM.
In the case of `COc1cc(C(O)c2cc(C(F)(F)F)cc(C(F)(F)F)c2)cc(OC)c1OC` (stereo not given), the 50% inhibitory concentration (IC50) worked out at 7.33 µM and the concentration for an effect of 90% (IC90) was over 8.04 µM.
Regarding `Cc1c(OCc2ccc(Br)cc2)ccc2c1OC(C)(C)C=C2`, the half-inhibitory concentration (IC50) was 0.199 µM and the IC90 is 0.652 µM.
The matching figures for `OC(Cc1ccccc1)(c1ccccc1)c1ccccc1/N=C/c1ccc(Cl)c(Cl)c1` (stereo not given): over 7.39 µM and over 7.39 µM.
The matching figures for `O=C(Nc1cc(Cl)cc(Cl)c1)c1ccccc1O`: 3.79 µM and 4.44 µM.
Regarding `O=C1/C(=C/c2ccccc2Cl)CCC/C1=C\c1ccccc1Cl`, the IC50 is over 9.61 µM and the IC90 was over 9.61 µM.
Take `CN1C/C(=C\c2ccccc2)C(=O)/C(=C/c2ccccc2)C1`: the IC50 was over 11.4 µM and the IC90 is over 11.4 µM.
Take `NC(/C=C/c1cc(C(F)(F)F)cc(C(F)(F)F)c1)=N\O`: the IC50 was over 11.1 µM and the IC90 is over 11.1 µM.
Turning to `CN1C/C(=C\c2ccc(Cl)cc2)C(=O)/C(=C/c2ccc(Cl)cc2)C1`, the half-inhibitory concentration (IC50) was found to be 7 µM and the 90% effect concentration (IC90) is over 9.21 µM.
